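Five compound concentrations were applied to cells in 96-well plates for 48 hours; endpoints were derived by simple linear interpolation of the resulting dose-response curve. GI50: concentration for 50% inhibition of growth.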 Active and inactive are the calls of the source. No stated cut-off is given here; in the data, active = GI50 up to about 1.1 µM and inactive = higher.

Test systems include UO-31; SNB-19; CCRF-CEM; IGROV-1; HOP-62; A498; U-251; SK-MEL-5; RPMI-8226; SF-295; HCT-15; M14; K562; ACHN; NCI-H23; TK-10; OVCAR-8; NCI-H226; Malme-3M; MOLT-4.
Holding throughout (test): growth of human tumour cells (NCI), 48 h

In the case of `COc1ccc(N2C(=O)C3C=CC(n4[nH]c(=O)n(Cc5ccccc5)c4=O)CC3C2=O)cc1` (stereo not given), the GI50 was > 100 µM (inactive) with UO-31; > 100 µM (inactive) in the test on SNB-19; > 100 µM (inactive) in the test on CCRF-CEM; > 100 µM (inactive) with IGROV-1; > 100 µM (inactive) in the test with HOP-62; 86.7 µM (inactive) in the test on A498. The GI50 in the test with U-251 was > 100 µM (inactive); in the test with SK-MEL-5 it was > 100 µM (inactive); with RPMI-8226 it was > 100 µM (inactive); in the test with SF-295, > 100 µM (inactive); in the test on HCT-15, above 100 µM; in the test on M14 it was > 100 µM (inactive). Besides, the GI50 with K562, in the test on ACHN, in the test with NCI-H23, with TK-10, with OVCAR-8 and with NCI-H226 was > 100 µM (inactive) each time. The GI50 in the test on Malme-3M and in the test on MOLT-4 was > 100 µM (inactive) in each case.

`CC1=NC(C(=O)O)Cc2c1[nH]c1ccccc21` (stereo not given): the GI50 is > 100 µM (inactive) with UO-31; > 100 µM (inactive) in the test with SNB-19; > 100 µM (inactive) with CCRF-CEM; > 100 µM (inactive) in the test with IGROV-1; < 0.01 µM (active) with HOP-62; > 100 µM (inactive) in the test with A498. Also, the GI50 was > 100 µM (inactive) with U-251; > 100 µM (inactive) with SK-MEL-5; > 100 µM (inactive) in the test with RPMI-8226; > 100 µM (inactive) with SF-295; above 100 µM with HCT-15; > 100 µM (inactive) in the test with M14. In addition, the GI50 in the test with K562, in the test with ACHN, in the test with NCI-H23, with TK-10, in the test with OVCAR-8 and in the test with NCI-H226 was > 100 µM (inactive) throughout. The GI50 in the test on Malme-3M and in the test with MOLT-4 was > 100 µM (inactive) in each case.

Values taken from ChEMBL document CHEMBL1201862, “PubChem BioAssay data set” (2004).
